Structures can show the parent of a compound that is named as a salt.
Target: CDK12/CycK (Homo sapiens, UniProt Q9NYV4)
Test: Inhibition of CDK12 (ADP-Glo kinase assay)
Assay type: biochemical
Settings: 60 nM CDK12/CycK, 30 minutes pre-incubation, 1 μM ATP, 0.5 μM RBER-IRStide substrate, 1 h at 25° C., read-out: CDK12/cyclin K IC50
Description: Assay buffer comprised 50 mM HEPES pH 7.5, 1 mM DTT, 20 mM MgCl2, 3 mM MnCl2, 3 μM Na3VO4 and 50 μg/ml PEG8000. Kinase reactions were carried out in 384-well Optiplates™ (PerkinElmer 6007299). Test compounds were dissolved & diluted in dimethyl sulfoxide (DMSO) and cross diluted into assay buffer with a final DMSO concentration of 1% (v/v) in the assay. Test compounds (or 1% DMSO in control and blank wells) were pre-incubated with 60 nM CDK12/CycK for 30 minutes. After this time 1 μM Adenosine-5′-triphosphate (ATP) and 0.5 μM RBER-IRStide substrate (ProQinase 0863-0000-1) were added to commence the kinase reaction. Incubations were carried out for 1 h at 25° C. with kinase activity determined using the ADP-Glo™ reagent from Promega according to the manufacturer's instructions. Light generated is proportional to kinase activity and measured using a luminometer (EnVision, PerkinElmer). The signal obtained in the blank wells (containing no kinase) was subtracted from all other wells and IC50 values were determined by fitting a sigmoidal curve to % inhibition of control versus Log10 compound concentration.

Chain of CDK12/CycK (Q9NYV4 whole entry): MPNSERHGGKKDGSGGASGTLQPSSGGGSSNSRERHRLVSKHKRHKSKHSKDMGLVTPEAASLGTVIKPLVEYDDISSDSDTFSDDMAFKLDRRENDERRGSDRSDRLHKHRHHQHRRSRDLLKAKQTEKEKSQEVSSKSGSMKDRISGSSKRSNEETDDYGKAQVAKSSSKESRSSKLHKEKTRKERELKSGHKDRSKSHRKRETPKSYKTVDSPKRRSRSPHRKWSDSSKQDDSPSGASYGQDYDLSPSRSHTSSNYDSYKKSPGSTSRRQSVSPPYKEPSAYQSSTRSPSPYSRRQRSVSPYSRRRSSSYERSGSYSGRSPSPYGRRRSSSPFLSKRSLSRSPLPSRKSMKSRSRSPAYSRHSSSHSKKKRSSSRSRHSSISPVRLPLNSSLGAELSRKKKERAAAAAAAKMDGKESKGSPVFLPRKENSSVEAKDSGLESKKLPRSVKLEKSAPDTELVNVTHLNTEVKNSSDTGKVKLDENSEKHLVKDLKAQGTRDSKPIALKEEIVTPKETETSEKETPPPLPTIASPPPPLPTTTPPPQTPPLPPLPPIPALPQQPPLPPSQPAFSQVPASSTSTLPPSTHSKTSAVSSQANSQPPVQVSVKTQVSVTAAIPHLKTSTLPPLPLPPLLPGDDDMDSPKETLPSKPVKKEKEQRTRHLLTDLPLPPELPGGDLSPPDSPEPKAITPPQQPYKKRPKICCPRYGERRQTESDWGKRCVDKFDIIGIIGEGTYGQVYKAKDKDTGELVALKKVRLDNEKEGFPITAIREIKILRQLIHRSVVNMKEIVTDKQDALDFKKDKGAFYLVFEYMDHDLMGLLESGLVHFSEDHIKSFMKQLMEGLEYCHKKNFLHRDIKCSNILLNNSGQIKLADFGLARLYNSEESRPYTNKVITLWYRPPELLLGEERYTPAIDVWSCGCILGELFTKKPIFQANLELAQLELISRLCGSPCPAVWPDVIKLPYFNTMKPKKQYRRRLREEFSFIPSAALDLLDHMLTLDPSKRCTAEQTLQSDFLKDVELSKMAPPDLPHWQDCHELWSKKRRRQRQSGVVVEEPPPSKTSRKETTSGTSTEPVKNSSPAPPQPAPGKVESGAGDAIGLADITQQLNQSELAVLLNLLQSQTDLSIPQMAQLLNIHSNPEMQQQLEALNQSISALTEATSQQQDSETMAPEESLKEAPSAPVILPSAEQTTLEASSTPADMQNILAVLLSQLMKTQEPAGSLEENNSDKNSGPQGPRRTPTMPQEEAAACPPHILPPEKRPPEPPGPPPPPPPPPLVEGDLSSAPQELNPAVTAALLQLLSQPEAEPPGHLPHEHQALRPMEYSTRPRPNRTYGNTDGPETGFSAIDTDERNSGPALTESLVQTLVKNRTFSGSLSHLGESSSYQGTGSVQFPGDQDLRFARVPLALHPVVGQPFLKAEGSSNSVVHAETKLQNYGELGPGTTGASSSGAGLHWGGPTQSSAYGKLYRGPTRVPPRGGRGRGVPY
Chain of CDK12/CycK (O75909 whole entry partner): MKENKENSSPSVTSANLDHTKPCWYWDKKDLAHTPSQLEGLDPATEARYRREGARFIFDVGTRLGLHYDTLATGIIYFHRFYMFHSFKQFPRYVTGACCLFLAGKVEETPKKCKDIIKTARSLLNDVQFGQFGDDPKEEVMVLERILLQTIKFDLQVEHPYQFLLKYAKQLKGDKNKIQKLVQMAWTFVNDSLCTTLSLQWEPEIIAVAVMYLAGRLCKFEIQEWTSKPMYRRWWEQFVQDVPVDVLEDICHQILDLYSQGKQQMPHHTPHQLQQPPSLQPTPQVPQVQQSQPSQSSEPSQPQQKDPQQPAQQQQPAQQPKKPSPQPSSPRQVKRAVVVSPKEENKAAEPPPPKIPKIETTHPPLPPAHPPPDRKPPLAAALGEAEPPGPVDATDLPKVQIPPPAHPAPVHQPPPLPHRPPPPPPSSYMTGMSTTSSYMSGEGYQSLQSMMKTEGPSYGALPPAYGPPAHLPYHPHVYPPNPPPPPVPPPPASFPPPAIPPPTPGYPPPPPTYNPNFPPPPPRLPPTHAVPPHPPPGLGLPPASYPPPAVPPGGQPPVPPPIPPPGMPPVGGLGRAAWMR

| IC50 [nM] | SMILES |
| --- | --- |
| 100 to 1000 | O=C(NCCc1cc2c(-c3cnn4ncccc34)ccnc2[nH]1)[C@@H]1CCCN1S(=O)(=O)c1ccccc1 [Example 89, (S)-1-(phenylsulfonyl)-N-(2-(4-(pyrazolo[1,5-b]pyridazin-3-yl)-1H-pyrrolo[2,3-b]pyridin-2-yl)ethyl)pyrrolidine-2-carboxamide] |
| < 100 | C=CC(=O)N1CCCC[C@@H]1C(=O)NCCc1cc2c(-c3cnn4ncccc34)ccnc2[nH]1 [Example 93, (R)-1-Acryloyl-N-(2-(4-(pyrazolo[1,5-b]pyridazin-3-yl)-1H-pyrrolo[2,3-b]pyridin-2-yl)ethyl)piperidine-2-carboxamide] |
| 1000 to 30000 | C=CC(=O)N1CCC[C@H]1C(=O)NCCc1cc2c(-c3ccncc3)ccnc2[nH]1 [Example 95, (S)-1-Acryloyl-N-(2-(4-(pyridin-4-yl)-1H-pyrrolo[2,3-b]pyridin-2-yl)ethyl)pyrrolidine-2-carboxamide] |
| 100 to 1000 | NCCc1cc2c(-c3cnn4ncccc34)c(Cl)cnc2[nH]1 [Example 101, 2-(5-chloro-4-(pyrazolo[1,5-b]pyridazin-3-yl)-1H-pyrrolo[2,3-b]pyridin-2-yl)ethan-1-amine] |
| 1000 to 30000 | NCCc1cc2c(-c3cccnc3)ccnc2[nH]1 [Example 104, 2-(4-(Pyridin-3-yl)-1H-pyrrolo[2,3-b]pyridin-2-yl)ethan-1-amine] |
| 1000 to 30000 | C=CC(=O)N1CCC[C@H]1C(=O)NCCc1cc2c(-c3cccnc3)ccnc2[nH]1 [Example 105, (S)-1-Acryloyl-N-(2-(4-(pyridin-3-yl)-1H-pyrrolo[2,3-b]pyridin-2-yl)ethyl)pyrrolidine-2-carboxamide] |
| 1000 to 30000 | O=C(NCCc1cc2c(-c3ccncc3)ccnc2[nH]1)[C@@H]1CCCN1 [Example 107, (S)—N-(2-(4-(Pyridin-4-yl)-1H-pyrrolo[2,3-b]pyridin-2-yl)ethyl)pyrrolidine-2-carboxamide] |
| < 100 | Nc1cccc(-c2cc3c(-c4cnn5ncccc45)ccnc3[nH]2)c1 [Example 114, 3-(4-(Pyrazolo[1,5-b]pyridazin-3-yl)-1H-pyrrolo[2,3-b]pyridin-2-yl)aniline] |
| < 100 | C=CC(=O)Nc1cccc(C(=O)Nc2cccc(-c3cc4c(-c5cnn6ncccc56)ccnc4[nH]3)c2)c1 [Example 115, 3-Acrylamido-N-(3-(4-(pyrazolo[1,5-b]pyridazin-3-yl)-1H-pyrrolo[2,3-b]pyridin-2-yl)phenyl)benzamide] |
| 1000 to 30000 | O=C(NCc1cc2c(-c3cnn4ncccc34)ccnc2[nH]1)C1CC1 [Example 116, N-((4-(Pyrazolo[1,5-b]pyridazin-3-yl)-1H-pyrrolo[2,3-b]pyridin-2-yl)methyl)cyclopropanecarboxamide] |
| 1000 to 30000 | CN(C)CC(=O)NCc1cc2c(-c3cnn4ncccc34)ccnc2[nH]1 [Example 117, 2-(Dimethylamino)-N-((4-(pyrazolo[1,5-b]pyridazin-3-yl)-1H-pyrrolo[2,3-b]pyridin-2-yl)methyl)acetamide Formate Salt] |
| 1000 to 30000 | O=S(=O)(NCc1cc2c(-c3cnn4ncccc34)ccnc2[nH]1)C1CC1 [Example 118, N-((4-(Pyrazolo[1,5-b]pyridazin-3-yl)-1H-pyrrolo[2,3-b]pyridin-2-yl)methyl)cyclopropanesulfonamide] |
| 100 to 1000 | CC(C)(C)OC(=O)N1CCC(c2cc3c(-c4cnn5ncccc45)ccnc3[nH]2)C1 (stereo not drawn) [Example 119, tert-Butyl 3-(4-(pyrazolo[1,5-b]pyridazin-3-yl)-1H-pyrrolo[2,3-b]pyridin-2-yl)pyrrolidine-1-carboxylate] |
| < 100 | c1cnn2ncc(-c3ccnc4[nH]c(C5CCNC5)cc34)c2c1 (stereo not drawn) [Example 122, 3-[2-(pyrrolidin-3-yl)-1H-pyrrolo[2,3-b]pyridine-4-yl)pyrazolo[1,5-b]pyridazine] |
| < 100 | C#CC(=O)Nc1ccc(C(=O)N2CCC(c3cc4c(-c5cnn6ncccc56)ccnc4[nH]3)C2)cc1 (stereo not drawn) [Example 128, N-(4-(3-(4-(Pyrazolo[1,5-b]pyridazin-3-yl)-1H-pyrrolo[2,3-b]pyridin-2-yl)pyrrolidine-1-carbonyl)phenyl)propiolamide] |
| 1000 to 30000 | OCC(O)COc1cnn2ncc(-c3ccnc4[nH]ccc34)c2c1 (stereo not drawn) [Example 131, 3-((3-(1H-Pyrrolo[2,3-b]pyridin-4-yl)pyrazolo[1,5-b]pyridazin-5-yl)oxy)propane-1,2-diol] |
| 100 to 1000 | Clc1cnc2[nH]ccc2c1-c1cnn2ncccc12 [Example 132, 3-(5-Chloro-1H-pyrrolo[2,3-b]pyridin-4-yl)pyrazolo[1,5-b]pyridazine] |

| IC50 [nM] | SMILES |
| --- | --- |
| 1000 to 30000 | CCn1cc(-c2ccnc3[nH]ccc23)nn1 [Example 133, 4-(1-Ethyl-1H-1,2,3-triazol-4-yl)-1H-pyrrolo[2,3-b]pyridine] |
| 1000 to 30000 | c1ccc(Cn2cc(-c3ccnc4[nH]ccc34)nn2)cc1 [Example 134, 4-(1-Benzyl-1H-1,2,3-triazol-4-yl)-1H-pyrrolo[2,3-b]pyridine] |
| 1000 to 30000 | COc1ccc(Cn2cc(-c3ccnc4[nH]ccc34)nn2)cc1 [Example 135, 4-(1-(4-Methoxybenzyl)-1H-1,2,3-triazol-4-yl)-1H-pyrrolo[2,3-b]pyridine] |
| 1000 to 30000 | c1cncc(Cn2cc(-c3ccnc4[nH]ccc34)nn2)c1 [Example 136, 4-(1-(Pyridin-3-ylmethyl)-1H-1,2,3-triazol-4-yl)-1H-pyrrolo[2,3-b]pyridine] |
| < 100 | CN(C)C/C=C/C(=O)Nc1cccc(C(=O)N2CCC(c3cc4c(-c5cnn6ncccc56)ccnc4[nH]3)C2)c1 (stereo not drawn) [Example 142, (E)-4-(Dimethylamino)-N-(3-(3-(4-(pyrazolo[1,5-b]pyridazin-3-yl)-1H-pyrrolo[2,3-b]pyridin-2-yl)pyrrolidine-1-carbonyl)phenyl)but-2-enamide] |
| < 100 | C=CC(=O)N1CCC(C(=O)N2CCC(c3cc4c(-c5cnn6ncccc56)ccnc4[nH]3)C2)CC1 (stereo not drawn) [Example 143, 1-(4-(3-(4-(Pyrazolo[1,5-b]pyridazin-3-yl)-1H-pyrrolo[2,3-b]pyridin-2-yl)pyrrolidine-1-carbonyl)piperidin-1-yl)prop-2-en-1-one] |
| < 100 | C#CC(=O)N1CCC(C(=O)N2CCC(c3cc4c(-c5cnn6ncccc56)ccnc4[nH]3)C2)CC1 (stereo not drawn) [Example 147, 1-(4-(3-(4-(Pyrazolo[1,5-b]pyridazin-3-yl)-1H-pyrrolo[2,3-b]pyridin-2-yl)pyrrolidine-1-carbonyl)piperidin-1-yl)prop-2-yn-1-one] |
| < 100 | C=CC(=O)Nc1ccc(C(=O)N2CC[C@H](c3cc4c(-c5cnn6ncccc56)ccnc4[nH]3)C2)cc1 [Example 150] |
| < 100 | C=CC(=O)NCC(=O)N1CCC(c2cc3c(-c4cnn5ncccc45)ccnc3[nH]2)C1 (stereo not drawn) [Example 152, N-(2-Oxo-2-(3-(4-(pyrazolo[1,5-b]pyridazin-3-yl)-1H-pyrrolo[2,3-b]pyridin-2-yl)pyrrolidin-1-yl)ethyl)acrylamide] |
| < 100 | C=CC(=O)N1CCC[C@H]1C(=O)N1CCC(c2cc3c(-c4cnn5ncccc45)ccnc3[nH]2)C1 (stereo partly drawn) [Example 153, 1-((2S)-2-(3-(4-(Pyrazolo[1,5-b]pyridazin-3-yl)-1H-pyrrolo[2,3-b]pyridin-2-yl)pyrrolidine-1-carbonyl)pyrrolidin-1-yl)prop-2-en-1-one] |
| < 100 | C=CC(=O)N1CCC[C@@H]1C(=O)N1CCC(c2cc3c(-c4cnn5ncccc45)ccnc3[nH]2)C1 (stereo partly drawn) [Example 154, 1-((2R)-2-(3-(4-(Pyrazolo[1,5-b]pyridazin-3-yl)-1H-pyrrolo[2,3-b]pyridin-2-yl)pyrrolidine-1-carbonyl)pyrrolidin-1-yl)prop-2-en-1-one] |
| < 100 | O=C([C@@H]1CCCN1C(=O)CCl)N1CCC(c2cc3c(-c4cnn5ncccc45)ccnc3[nH]2)C1 (stereo partly drawn) [Example 155, 2-Chloro-1-((2S)-2-(3-(4-(pyrazolo[1,5-b]pyridazin-3-yl)-1H-pyrrolo[2,3-b]pyridin-2-yl)pyrrolidine-1-carbonyl)pyrrolidin-1-yl)ethan-1-one] |
| < 100 | O=C(CCl)NCC(=O)N1CCC(c2cc3c(-c4cnn5ncccc45)ccnc3[nH]2)C1 (stereo not drawn) [Example 157, 2-Chloro-N-(2-oxo-2-(3-(4-(pyrazolo[1,5-b]pyridazin-3-yl)-1H-pyrrolo[2,3-b]pyridin-2-yl)pyrrolidin-1-yl)ethyl)acetamide] |
| < 100 | O=C(CCl)N1CCC(C(=O)N2CCC(c3cc4c(-c5cnn6ncccc56)ccnc4[nH]3)C2)CC1 (stereo not drawn) [Example 158, 2-Chloro-1-(4-(3-(4-(pyrazolo[1,5-b]pyridazin-3-yl)-1H-pyrrolo[2,3-b]pyridin-2-yl)pyrrolidine-1-carbonyl)piperidin-1-yl)ethan-1-one] |
| < 100 | C=CC(=O)N1CCC[C@H]1C(=O)N1CC[C@H](c2cc3c(-c4cnn5ncccc45)ccnc3[nH]2)C1 [Example 162, 1-((S)-2-((S)-3-(4-(Pyrazolo[1,5-b]pyridazin-3-yl)-1H-pyrrolo[2,3-b]pyridin-2-yl)pyrrolidine-1-carbonyl)pyrrolidin-1-yl)prop-2-en-1-one] |
| < 100 | COCCC(=O)Nc1ccccc1C(=O)N1CCC(c2cc3c(-c4cnn5ncccc45)ccnc3[nH]2)C1 (stereo not drawn) [Example 163, 3-Methoxy-N-(2-(3-(4-(pyrazolo[1,5-b]pyridazin-3-yl)-1H-pyrrolo[2,3-b]pyridin-2-yl)pyrrolidine-1-carbonyl)phenyl)propanamide Formate Salt] |

— US11407767B2, “Heterocyclyl substituted pyrrolopyridines that are inhibitors of the CDK12 kinase” (The University of Nottingham, priority 2017, dated 2022)
